Values quoted from earlier work as cited in patent US6649649B1, “Method of treating colonic adenomas” (Merck & Co., Inc., priority 1995, dated 2003).

Columns and labels:
incident colon cancer = details: persons who regularly used aspirin compared to those who used no aspirin
[1] = test system: polyps in patients with familial polyposis
sporadic colonic polyps = details: early sporadic polyps (67% of the polyps were <5 mm)

## CS(=O)(=O)Nc1ccc([N+](=O)[O-])cc1OC1CCCCC1 [NS-398]
PGHS-1 or PGHS-2
  selectivity for inhibition of either PGHS-1 or PGHS-2: selective PGHS-2 inhibitor
rat
  analgesic effect: analgesic effects
  antiinflammatory effect: antiinflammatory
  antipyretic effect: antipyretic
  ulcerogenicity: without being ulcerogenic

## CC(=O)Oc1ccccc1C(=O)O [aspirin]
Incident colon cancer
  lower risk of incident colon cancer: 40%
PGHS-1 or PGHS-2
  selectivity for inhibition of either PGHS-1 or PGHS-2: little selectivity

## COc1ccc2c(c1)c(CC(=O)O)c(C)n2C(=O)c1ccc(Cl)cc1 [indomethacin]
PGHS-1 or PGHS-2
  selectivity for inhibition of either PGHS-1 or PGHS-2: little selectivity

## CC1=C(CC(=O)O)c2cc(F)ccc2/C1=C\c1ccc([S+](C)[O-])cc1 (centres unmarked) [sulindac]
[1]
  polyp regression: results in polyp regression
Sporadic colonic polyps
  regression of sporadic colonic polyps: did not result in a regression
PGHS-1 or PGHS-2
  inhibition of PGHS-1 and PGHS-2: inhibiting both PGHS-1 and PGHS-2
